# Several values for one entry are separate records, joined by “and”; a condition that tells them apart may be missing. Identical values can stand only once. Like-named read-outs stand apart in the source and are kept apart here.
# How the values were obtained:
# [1] = tested on: M. smegmatis mc^2155; format: cell-based, Mycobacterium smegmatis; conditions: pH 5.5
# [2] = tested on: Mtb H37Rv; assay: microbe, parasite or virus in culture; format: cell-based, Mycobacterium tuberculosis; conditions: for MIC99: Mycobacterium tuberculosis, H37RV
# [3] = tested on: intracellular Mtb H37Rv in THP-1 cells; format: cell-based, Mycobacterium tuberculosis
# [4] = tested on: THP-1 cells; assay: cells; format: cell-based; conditions: Homo sapiens, THP-1, 18 h, read-out: IC50 THP-1
# [5] = tested on: normal human foreskin fibroblast (HFF) cells; assay: cells; format: cell-based; conditions: 48 h, read-out: IC50 HFF
# [6] = tested on: Mtb T 21 (INH-sensitive); assay: microbe, parasite or virus in culture; format: cell-based; conditions: Mycobacterium tuberculosis
# [7] = tested on: Mtb Beijing 26 (RIF-sensitive); assay: microbe, parasite or virus in culture; format: cell-based; conditions: Mycobacterium tuberculosis
# [8] = tested on: Mtb Haarlem 23 (RIF-sensitive); assay: microbe, parasite or virus in culture; format: cell-based; conditions: Mycobacterium tuberculosis
# [9] = tested on: PBS-starved H37Rv; format: cell-based, Mycobacterium tuberculosis
# [10] = tested on: M. smegmatis mc^2155; assay: microbe, parasite or virus in culture; format: cell-based, Mycobacterium smegmatis; conditions: Mycolicibacterium smegmatis
# [11] = tested on: M. bovis BCG; assay: microbe, parasite or virus in culture; format: cell-based; conditions: Mycobacterium tuberculosis variant bovis BCG
# [12] = tested on: M. smegmatis mc^2155; format: cell-based, Mycobacterium smegmatis
# [13] = tested on: M. bovis BCG; format: cell-based, Mycobacterium bovis
# [14] = tested on: M. bovis BCG; format: cell-based, Mycobacterium bovis; remark: listed apart in the source
# [15] = tested on: Escherichia coli; assay: microbe, parasite or virus in culture; format: cell-based
# [16] = tested on: Staphylococcus aureus; assay: microbe, parasite or virus in culture; format: cell-based
# [17] = tested on: Bacillus subtilis; assay: microbe, parasite or virus in culture; format: cell-based
# [18] = tested on: Pseudomonas aeruginosa; assay: microbe, parasite or virus in culture; format: cell-based
# [19] = human
# [20] = mouse; for Clint: microsomes
# [21] = in vitro; conditions: human, microsomes
# [22] = in vitro; conditions: mouse, microsomes
# [23] = in vitro; conditions: human, hepatocytes
# [24] = tested on: M. bovis BCG; format: cell-based, Mycobacterium bovis; remark: listed apart in the source
# [25] = tested on: M. smegmatis mc^2155; conditions: cited from earlier work
SMILES,"MIC99 ([2]; 120 h, read-out: MIC (MIC99)) [µg/mL]",IC50 [4] [µg/mL],MIC [6] [µg/mL],MIC [7] [µg/mL],MIC [8] [µg/mL],sensitivity of non-replicating Mtb [9],Predicted EH [19],Predicted EH [20],Clint [20] [mL/min],half-life [21] [min],half-life [22] [min],other results
"N#CC(C#N)=NNc1cccc(Cl)c1 [CCCP, carbonyl cyanide m-chlorophenylhydrazone]",–,–,–,–,–,–,–,–,–,–,–,intrabacterial pH [1]: 5.5
"FC(F)(F)Oc1ccc(Oc2ccc(CNCCNC3C4CC5CC(C4)CC3C5)cc2)cc1 (centres unmarked) [Compound 8, N^1-adamantan-2-yl-N^2-(4-(4-(trifluoro-methoxy)phenoxy)benzyl)ethane-1,2-diamine]",1.2,4.4,0.58,1.2,1.2,sensitive,0.144,0.557,113,231,24.1,MIC99 [2]: 2.5 µM; reduction in bacterial cfu compared to untreated infected macrophages [3]: two-log reduction; IC50 [5]: 16.1 µg/mL; reduction in viability of non-replicating Mtb [9]: 3 log; MIC [10]: 9.21 µg/mL and 20 µM; MIC [11]: 0.575 µg/mL and 1.25 µM; effect on ΔΨ (red / green fluorescence ratio of DiOC2) [12]: rapid depletion of ΔΨ; intrabacterial pH [1]: ~7; effect on ΔpH [13]: None of the concentrations tested reduced ΔpH; effect on intracellular ATP [14]: reduces intracellular ATP in a dose-dependent manner; IC50 [15]: 6.25 µg/mL; IC50 [16]: 6.25 µg/mL; IC50 [17]: 6.25 µg/mL; IC50 [18]: 12.5 µg/mL; half-life [23]: 190 min
"CC[C@@H](CO)NCCN[C@@H](CC)CO [EMB, ethambutol]",2,–,0.5,1,1,tolerant,–,–,–,–,–,–
"NNC(=O)c1ccncc1 [INH, isoniazid]",–,7000,0.05,0.025,0.025,tolerant,–,–,–,–,–,1×MIC (in vitro MIC) [2]: 0.05 µg/mL
"Cc1ncc2n1-c1ccc(Cl)cc1C(c1ccccc1F)=NC2 [Midazolam, midazolam]",–,–,–,–,–,–,0.920,0.924,1130,3.35,2.41,Clint ([19]; microsomes): 239 mL/min
"CO[C@H]1/C=C/O[C@@]2(C)Oc3c(C)c(O)c4c(O)c(c(/C=N/N5CCN(C)CC5)c(O)c4c3C2=O)NC(=O)/C(C)=C\C=C\[C@H](C)[C@H](O)[C@@H](C)[C@@H](O)[C@@H](C)[C@H](OC(C)=O)[C@@H]1C [RIF, rifampicin]",–,240,0.0125,0.0125,0.0125,tolerant,–,–,–,–,–,1×MIC (in vitro MIC) [2]: 0.025 µg/mL
CC(C)=CCC/C(C)=C/CNCCNC1C2CC3CC(C2)CC1C3 (centres unmarked) [SQ109],1.56,–,–,–,–,–,0.929,0.926,1118,2.97,2.44,MIC (MIC99) [2]: 1.6 µg/mL; effect on ΔΨ [24]: rapidly deplete ΔΨ; effect on ΔΨ and ΔpH [25]: rapidly depleted both the transmembrane potential (ΔΨ) and the chemical proton gradient (ΔpH)

# Reference: publication PMC6742494 (ACS infectious diseases, 2016)
